Tests used:
[1] = test system: membrane protein (NMDAR); experiment: Membrane protein-based sandwich ELISA; type: binding, mouse
Procedure: Pellets of the membrane protein obtained from tau knockout brain by the procedure of the above (7-1) were dissolved in 2% cholic acid or 1% deoxycholate/buffer (50 mM of HEPES, 150 mM of NaCl, pH 7.4), and the solution was centrifuged at 4° C., 150,000×g for 30 minutes to thereby collect the supernatant to use as a membrane protein solution. The obtained membrane protein solution was applied to an ELISA plate (Sumitomo Bakelite Co., Ltd., MS-8596F) and incubated at 4° C. for 60 minutes to thereby coat the plate with the membrane protein. After washing with wash solution (0.004 to 0.008% MNG-3, 50 mM of HEPES, pH 7.4), blocking was done by adding 1% FBS-containing wash solution and incubating at 4° C. for 60 minutes. The solvent of the HT-tau oligomer sample prepared in the above (1-4) was replaced with the wash solution using a protein concentrator (10K MWCO, Pierce, 88526) to thereby prepare a tau oligomer solution of 10^−16 to 10^−6 g/ml. These solutions were applied to the plate and incubated at 4° C. for 15 to 60 minutes. Then, the plate was washed thoroughly with the wash solution and a 5% skim milk-containing wash solution was added, followed by incubating at room temperature for 30 minutes to thereby block the protein. After washing using the wash solution, an anti-HaloTag antibody/wash solution (1:1000 dilution) was added and incubated at room temperature for 30 minutes. Subsequently, the plate was washed with the wash solution, an HRP-labelled secondary antibody/wash solution (Invitrogen, A27036) (1:5000 dilution) was added and incubated at room temperature for 30 minutes. Then, chromogenic reactions were carried out using an Ultra TMB solution (Thermo Fisher Scientific, 34028) to detect the tau oligomers bound to the membrane protein.

[2] = test system: NMDA receptor; experiment: NMDAR-based sandwich ELISA; type: binding, mouse; conditions: tau oligomer solution of 10^−11 g/ml or less
[3] = biological target: T1, NMDAR (Mus musculus, UniProt P35436+P35438+Q01097); experiment: Pull-down assay of HT-tau oligomer with membrane protein of tau knockout mouse brain; type: binding; conditions: HT-tau oligomers immobilized on HaloTag beads, western blot anti-NR1
T1 construct: from tissue
Procedure: Whether or not the tau oligomer and NMDAR directly bind and interact was confirmed by a pull-down assay using the HT-tau oligomer. Magne™ HaloTag beads (Promega Corporation, #G728A) (50 mg) were added to the HT-tau oligomer sample (100 μl) prepared in the above (1-4), and a binding reaction was carried out at 4° C. for 12 hours to thereby immobilize the HT-tau oligomers on the beads. Additionally, brain slice specimens were prepared from tau knockout mice (B6.129X1-Mapt^tm1Hnd/J, Jackson Laboratory) by the same procedure as in the above (2-1) and were homogenized in 50-fold volume of the lysis buffer (4 mM of HEPES, 2 mM of EGTA, 0.32 M of sucrose, 1% Protease Inhibitor Cocktail, 1% Phosphatase Inhibitor Cocktail (Nacalai Tesque Inc., #07575-51)), and the lysate was centrifuged at 4° C., 12,000×g for 15 minutes to thereby collect pellets. The obtained pellets were dissolved in a 2% cholic acid or 1% deoxycholate/TBS solution (25 mM of Tris-HCl, 150 mM of NaCl, pH 7.4) and the resultant was used as a membrane protein solution. […] The obtained tau oligomer-membrane protein complexes were applied to SDS-PAGE electrophoresis, and NMDARs were detected by the western blot. […]

[4] = test system: postsynaptic NMDAR and AMPAR; experiment: Western blot of NMDA and AMPA receptor amounts on the synapse, brain slices of aging C57BL/6 mice; parameters: species or system mouse; conditions: aging C57BL/6 brain slice, 0.5% Triton X-100-insoluble membrane fraction
Procedure: As the molecule mechanism of NMDAR-LTD, it has been known that the AMPA receptors (hereinafter described as “AMPAR”) and/or the NMDA receptors (NMDAR) are incorporated into a cell by the endocytosis in the postsynaptic membrane caused by the activation of the NMDA receptors. Thus, an analysis was performed on the changes in amount of NMDARs and AMPARs on synapses in the brain slice specimens exposed to the tau oligomer sample and the brain slice specimens not exposed to the tau oligomer sample, prepared by the procedures of the above (2-1) and (2-2).
The brain slice specimens were frozen and disrupted in a 50-fold volume of homogenizing buffer (4 mM of HEPES, 2 mM of EGTA, 0.32 M of sucrose, pH 7.4) using a Teflon® homogenizer. The disrupted tissue solution was centrifuged at 4° C., 1,000×g for 15 minutes to thereby collect the supernatant, and the supernatant was further centrifuged at 4° C., 12,000×g for 15 minutes to thereby collect membrane fractions (pellets). The obtained membrane fractions were dissolved in tris-buffered saline containing 0.5% Triton X-100 (50 mM of Tris, 500 mM of NaCl, pH 7.4) and were centrifuged at 4° C., 20,000×g for 15 minutes. […] The western blot was carried out on the 0.5% Triton X-100-insoluble membrane fraction sample to quantify the AMPA receptor (GluA2 subunit) and the NMDA receptors (NR2a and NR2b subunits). […]

[5] = test system: postsynaptic NMDAR and AMPAR; experiment: Western blot of NMDA and AMPA receptor amounts on the synapse, brain slices of tau knockout mice; conditions: tau knockout mouse brain slice
Procedure: The brain slice specimens were frozen and disrupted in a 50-fold volume of homogenizing buffer (4 mM of HEPES, 2 mM of EGTA, 0.32 M of sucrose, pH 7.4) using a Teflon® homogenizer. The disrupted tissue solution was centrifuged at 4° C., 1,000×g for 15 minutes to thereby collect the supernatant, and the supernatant was further centrifuged at 4° C., 12,000×g for 15 minutes to thereby collect membrane fractions (pellets). The obtained membrane fractions were dissolved in tris-buffered saline containing 0.5% Triton X-100 (50 mM of Tris, 500 mM of NaCl, pH 7.4) and were centrifuged at 4° C., 20,000×g for 15 minutes. The supernatant was used as a 0.5% Triton X-100-soluble membrane fraction sample and the pellet was used as a 0.5% Triton X-100-insoluble membrane fraction sample. The western blot was carried out on the 0.5% Triton X-100-insoluble membrane fraction sample to quantify the AMPA receptor (GluA2 subunit) and the NMDA receptors (NR2a and NR2b subunits). The antibodies used were an anti-Glu2 antibody (Alomone Labs, #AGC-073) (1:1000 dilution), an anti-NR2A antibody (Alomone Labs, #AGC-002) (1:1000 dilution), and an anti-NR2B antibody (Alomone Labs, #AGC-003) (1:1000 dilution).
In the tau knockout mice, the reduction of NMDARs and AMPARs on the synapse by the exposure of the tau oligomer sample was not observed.

T1 sequence (P35436 23-1464, other chains not shown): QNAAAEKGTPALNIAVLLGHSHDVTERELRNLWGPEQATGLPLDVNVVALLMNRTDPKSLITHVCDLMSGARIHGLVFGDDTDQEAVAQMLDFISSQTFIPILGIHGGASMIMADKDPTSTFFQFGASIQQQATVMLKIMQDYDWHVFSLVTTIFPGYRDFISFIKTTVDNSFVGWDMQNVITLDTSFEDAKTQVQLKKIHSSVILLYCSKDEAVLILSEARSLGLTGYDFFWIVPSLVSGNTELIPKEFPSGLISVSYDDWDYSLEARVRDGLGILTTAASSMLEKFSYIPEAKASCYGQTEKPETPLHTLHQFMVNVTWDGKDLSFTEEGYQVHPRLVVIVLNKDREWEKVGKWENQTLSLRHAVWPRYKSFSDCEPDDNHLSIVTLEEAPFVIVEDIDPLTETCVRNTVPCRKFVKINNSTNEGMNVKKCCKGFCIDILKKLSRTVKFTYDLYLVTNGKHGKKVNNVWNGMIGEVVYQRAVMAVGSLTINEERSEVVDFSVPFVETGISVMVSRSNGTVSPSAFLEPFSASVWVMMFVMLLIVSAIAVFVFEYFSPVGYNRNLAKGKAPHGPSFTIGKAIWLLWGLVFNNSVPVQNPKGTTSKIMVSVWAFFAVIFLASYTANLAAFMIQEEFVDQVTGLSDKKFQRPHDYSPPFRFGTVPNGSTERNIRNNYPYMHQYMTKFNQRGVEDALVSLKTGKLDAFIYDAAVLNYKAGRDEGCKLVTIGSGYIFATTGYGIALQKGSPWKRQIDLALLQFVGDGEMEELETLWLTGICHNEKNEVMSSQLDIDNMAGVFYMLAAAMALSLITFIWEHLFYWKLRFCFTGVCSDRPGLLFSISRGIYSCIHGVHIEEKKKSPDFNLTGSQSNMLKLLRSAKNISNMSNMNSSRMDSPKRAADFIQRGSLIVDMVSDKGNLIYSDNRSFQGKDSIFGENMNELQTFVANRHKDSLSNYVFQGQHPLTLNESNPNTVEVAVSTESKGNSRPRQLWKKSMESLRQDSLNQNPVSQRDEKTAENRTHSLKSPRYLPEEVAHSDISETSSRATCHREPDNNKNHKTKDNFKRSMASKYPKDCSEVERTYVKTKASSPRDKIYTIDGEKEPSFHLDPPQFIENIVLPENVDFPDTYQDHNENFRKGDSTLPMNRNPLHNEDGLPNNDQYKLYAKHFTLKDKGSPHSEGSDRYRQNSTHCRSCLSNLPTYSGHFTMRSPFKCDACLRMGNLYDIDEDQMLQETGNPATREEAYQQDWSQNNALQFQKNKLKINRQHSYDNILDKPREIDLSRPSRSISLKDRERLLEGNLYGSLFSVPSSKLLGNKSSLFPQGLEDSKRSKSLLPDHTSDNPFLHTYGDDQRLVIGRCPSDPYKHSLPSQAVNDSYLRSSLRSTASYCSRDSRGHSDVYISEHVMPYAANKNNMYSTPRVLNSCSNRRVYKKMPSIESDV
T1 sequence (Q01097 27-1482, other chains not shown): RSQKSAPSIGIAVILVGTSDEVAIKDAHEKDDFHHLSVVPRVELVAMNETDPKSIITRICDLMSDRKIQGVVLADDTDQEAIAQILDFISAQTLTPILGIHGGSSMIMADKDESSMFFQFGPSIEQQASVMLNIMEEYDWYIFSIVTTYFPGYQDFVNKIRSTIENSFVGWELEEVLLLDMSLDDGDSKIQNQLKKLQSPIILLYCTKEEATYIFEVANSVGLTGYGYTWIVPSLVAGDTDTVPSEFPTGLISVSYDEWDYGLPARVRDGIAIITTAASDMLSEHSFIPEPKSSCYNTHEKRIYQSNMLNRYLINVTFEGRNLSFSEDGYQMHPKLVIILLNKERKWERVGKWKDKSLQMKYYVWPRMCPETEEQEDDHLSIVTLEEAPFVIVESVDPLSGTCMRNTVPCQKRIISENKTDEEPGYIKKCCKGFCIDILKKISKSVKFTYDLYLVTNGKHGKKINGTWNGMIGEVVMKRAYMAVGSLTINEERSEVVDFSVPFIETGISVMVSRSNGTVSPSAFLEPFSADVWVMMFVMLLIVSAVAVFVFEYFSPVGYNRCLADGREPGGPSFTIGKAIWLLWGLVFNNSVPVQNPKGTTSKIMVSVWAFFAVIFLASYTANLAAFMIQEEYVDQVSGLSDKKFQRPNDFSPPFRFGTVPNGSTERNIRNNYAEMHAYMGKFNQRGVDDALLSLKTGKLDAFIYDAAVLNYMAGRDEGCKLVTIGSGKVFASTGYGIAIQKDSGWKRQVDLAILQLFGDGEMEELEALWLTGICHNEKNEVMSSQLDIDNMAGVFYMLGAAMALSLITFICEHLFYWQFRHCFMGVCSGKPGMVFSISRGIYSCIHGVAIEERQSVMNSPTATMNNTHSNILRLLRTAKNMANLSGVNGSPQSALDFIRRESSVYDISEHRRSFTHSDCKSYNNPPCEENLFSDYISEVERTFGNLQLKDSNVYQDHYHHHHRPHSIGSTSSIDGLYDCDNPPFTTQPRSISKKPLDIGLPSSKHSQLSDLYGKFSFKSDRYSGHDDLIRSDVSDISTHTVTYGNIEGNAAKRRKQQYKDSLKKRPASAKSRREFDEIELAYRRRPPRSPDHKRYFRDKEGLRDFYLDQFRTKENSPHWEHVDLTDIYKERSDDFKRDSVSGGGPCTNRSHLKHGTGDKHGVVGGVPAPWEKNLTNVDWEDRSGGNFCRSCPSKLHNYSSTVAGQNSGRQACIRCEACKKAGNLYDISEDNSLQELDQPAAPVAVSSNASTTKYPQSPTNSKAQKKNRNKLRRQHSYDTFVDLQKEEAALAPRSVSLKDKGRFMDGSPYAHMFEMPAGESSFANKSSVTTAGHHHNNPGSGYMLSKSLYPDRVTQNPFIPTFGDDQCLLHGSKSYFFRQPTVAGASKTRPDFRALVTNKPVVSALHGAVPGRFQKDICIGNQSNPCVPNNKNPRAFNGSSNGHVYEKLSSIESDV

For “tau oligomer: polymer of human tau 2N4R monomers, polymerized with mouse brain extract and ATP, collected as pellets”, the “amount of tau oligomer bound to membrane protein” value ([1]; tau oligomer solution of 10^−8 g/ml or higher) was “increased in a concentration-dependent manner”, the “binding of the tau oligomer to membrane protein” value ([1]; tau oligomer solution of 10^−11 g/ml or lower) was “detected” and the “binding of the tau oligomer to the NMDA receptor” value [2] was “increased in a concentration-dependent manner”. For the same substance, the “binding of NMDAR in pull-down assay” value [3] was “directly bound”, the “amount of AMPARs on the postsynaptic site” value ([4]; GluA2, normalized to aCSF) was “reduced” and the “amount of NMDARs on the postsynaptic site” value ([4]; NR2a and NR2b, normalized to aCSF) was “reduced”. The “reduction of AMPARs on the synapse” value [5] was “not observed” and the “reduction of NMDARs on the synapse” value [5] was “not observed”.
